Results published in article PMC5537056 (Leukemia, 2016).

Legend:
Type in all cases: cell-based
PIM2 expression in MM1.S = experiment: Western blot of PIM2 protein expression; settings: IL-6 25 ng/ml
PIM2 expression in U266 = experiment: Western blot of PIM2 protein expression; settings: U266, IL-6 25 ng/ml
MM1.S = experiment: Viability assay by flow cytometry
RPMI8226 = experiment: Viability assay by flow cytometry; settings: read-out: LC50 (Viability); RPMI8226, 48 hrs
U266 = experiment: Viability assay by flow cytometry
KMS11 = experiment: Viability assay by flow cytometry; settings: read-out: LC50 (Viability); KMS11, 48 hrs
[1] = tested on: MM cell lines (RPMI8226, U266, MM1.S, KMS11); experiment: Proliferation assays, range over the four MM cell lines; settings: read-out: GI50, range over MM cell lines
[2] = tested on: MM cell lines (RPMI8226, U266, MM1.S, KMS11); experiment: Viability assays, range over the four MM cell lines; settings: read-out: LC50, range over MM cell lines
[3] = Homo sapiens, MM1.S, 48 h, read-out: cell viability

rIL-6: Recombinant IL-6 purchased from R&D Systems
upregulation of PIM2 (PIM2 expression in MM1.S): 3.2 fold
upregulation of PIM2 (PIM2 expression in U266): 1.3 fold

C[C@@H]1C[C@H]2[C@@H]3CCC4=CC(=O)C=C[C@]4(C)[C@@]3(F)[C@@H](O)C[C@]2(C)[C@@]1(O)C(=O)CO [dexamethasone]
viability at 5 µM (MM1.S; [3]): 55%

N[C@@H]1CCCN(c2c(/C=C3\SC(=O)NC3=O)cccc2-c2ccccc2)C1 [AZD1208]
CC50 (RPMI8226): 30 µM
CC50 (U266; read-out: LC50 (Viability), U266, 48 hrs): 56.6 µM
CC50 (MM1.S; read-out: LC50 (Viability), MM1S, 48 hrs): 23.7 µM
CC50 (KMS11): 31.3 µM
GI50 [1]: 700 to 4700 nM
CC50 [2]: 23 to 56 µM

N[C@@H](Cc1ccc(N(CCCl)CCCl)cc1)C(=O)O [melphalan]
viability at 4 µM (U266; Homo sapiens, U-266, read-out: cell viability): 58%
viability at 2 µM (MM1.S; [3]): 36%

CC(C)C[C@H](NC(=O)[C@H](Cc1ccccc1)NC(=O)c1cnccn1)B(O)O [bortezomib]
viability at 0.0015 µM (MM1.S; [3]): 18%
